Literature values, collected in US11154520B2, “Combination therapy for metastatic cancer” (General Oncology, Inc., priority 2015, dated 2021).

Conditions: decomposes intravascularly within seconds to 2,3-diketogulonic acid

stability in blood: unstable
SMILES: O=C1O[C@H]([C@@H](O)CO)C(=O)C1=O [DHA, (5R)-5-[(1S)-1,2-dihydroxyethyl]oxolane-2,3,4-trione]
